US7247644B2, “Ester derivatives of a decahydroisoquinoline-3-carboxylic acid as analgestics” (Eli Lilly and Company, priority 2003, dated 2007)

Assays:
Assay type in all cases: in vivo
[1] = Bioavailability in Dogs: plasma concentrations of parent acid by LC/MS/MS; details: both sexes, dog, iv; Compound A in plasma, Beagle dogs, 1 mg/kg
Description: (§1) Percent bioavailability is determined using the following equation:
(§2) [formula] wherein AUC represents the area under the curve, p.o. represents oral dose, and i.v. represents intravenous dose. Bioavailability in Dogs:
Beagle dogs (2 male and 1 female) are administered an oral dose, and later an iv dose of (3S,4aR,6R,8aR)-6-[2-(1(2)H-tetrazole-5-yl)ethyl-1,2,3,4,4a,5,6,7,8,8a-decahydroisoquinoline-3-carboxylic acid (10 mg/Kg p.o; 1 mg/Kg i.v.) to determine oral bioavailability. Subsequently, the same three dogs are administered an oral 10 mg/kg dose of an ester prodrug (for example (3S,4aR,6R,8aR)-6-[2-(1(2)H-tetrazole-5-yl)ethyl-1,2,3,4,4a,5,6,7,8,8a-decahydroisoquinoline-3-carboxylic acid ethyl ester, HCL salt) to determine whether the prodrug would increase bioavailability of the parent acid. The plasma concentrations of (3S,4aR,6R,8aR)-6-[2-(1(2)H-tetrazole-5-yl)ethyl-1,2,3,4,4a,5,6,7,8,8a-decahydroisoquinoline-3-carboxylic acid are determined by LC/MS/MS.
Live Phase: (3S,4aR,6R,8aR)-6-[2-(1(2)H-tetrazole-5-yl)ethyl-1,2,3,4,4a,5,6,7,8,8a-decahydroisoquinoline-3-carboxylic acid (HCl salt) is dissolved in dilute sodium hydroxide for oral administration (30 mg/ml) and in 10% ethanol/water for iv administration (10 mg/ml). […]

[2] = Bioavailability in Rats: plasma concentrations of parent acid by LC/MS/MS; details: male, rat, iv; Compound A in plasma, Fischer rats, 10 mg/kg
Description: as §1, §2
Male Fischer Rats are administered either an oral or iv dose of (3S,[…])-6-[2-(1(2)H-tetrazole-5-yl)ethyl-1,2,3,4,4a,5,6,7,8,8a-decahydroisoquinoline-3-carboxylic acid (10 mg/Kg) to determine oral bioavailability. A separate group of rats are administered an oral 10 mg/kg dose of an ester prodrug (for example (3S,4aR,6R,8aR)-6-[2-(1(2)H-tetrazole-5-yl)ethyl-1,2,3,4,4a,5,6,7,8,8a-decahydroisoquinoline-3-carboxylic acid ethyl ester, HCL salt) to determine whether the prodrug would increase bioavailability of the parent acid. The plasma concentrations of (3S,4aR,6R,8aR)-6-[2-(1(2)H-tetrazole-5-yl)ethyl-1,2,3,4,4a,5,6,7,8,8a-decahydroisoquinoline-3-carboxylic acid are determined by LC/MS/MS.

[3] = Bioavailability in Cynomolgus Monkeys: plasma concentrations of parent acid by LC/MS/MS; details: both sexes, cynomolgus monkey, iv, 0.3 mg/kg, Compound A in plasma, .3 mg/kg
Description: as §1, §2
Two male and two female monkeys are administered an oral, and later, an iv dose of (3S,4aR,6R,8aR)-6-[2-(1(2)H-tetrazole-5-yl)ethyl-1,2,3,4,4a,5,6,7,8,8a-decahydroisoquinoline-3-carboxylic acid (oral: 3 mg/kg; iv: 0.3 mg/kg) to determine oral bioavailability. The same animals are also subsequently administered an oral 3 mg/kg dose of (3S,4aR,6R,8aR)-6-[2-(1(2)H-tetrazole-5-yl)ethyl-1,2,3,4,4a,5,6,7,8,8a-decahydroisoquinoline-3-carboxylic acid ethyl ester to determine if the ester prodrug form increases bioavailability of the parent acid. The plasma concentrations of the parent acid are determined by LC/MS/MS.
Four cynomolgus monkeys (2/sex) are given a single oral dose of (3S,4aR,6R,8aR)-6-[2-(1(2)H-tetrazole-5-yl)ethyl-1,2,3,4,4a,5,6,7,8,8a-decahydroisoquinoline-3-carboxylic acid (3 mg/kg) on day 0, a single iv dose of (3S,4aR,6R,8aR)-6-[2-(1(2)H-tetrazole-5-yl)ethyl-1,2,3,4,4a,5,6,7,8,8a-decahydroisoquinoline-3-carboxylic acid (0.3 mg/kg) on day 4 and a single oral dose of (3S,4aR,6R,8aR)-6-[2-(1(2)H-tetrazole-5-yl)ethyl-1,2,3,4,4a,5,6,7,8,8a-decahydroisoquinoline-3-carboxylic acid ethyl ester (3 mg/kg) on day 8. […]

AUC [1]: 4220 ng·h/mL | Cmax [1]: 2820 ng/mL | AUC [2]: 6730 ng·h/mL | Cmax [2]: 11000 ng/mL | AUC [3]: 1080 ng·h/mL | Cmax [3]: 1620 ng/mL
SMILES: O=C(O)[C@@H]1C[C@H]2C[C@@H](CCc3nn[nH]n3)CC[C@H]2CN1 [Compound A]
